The source of these data is patent publication US20220251218A1, “PHARMACEUTICAL COMBINATION AND METHOD FOR OVERCOMING IMMUNE SUPPRESSION OR STIMULATING IMMUNE RESPONSE AGAINST CANCER” (GNT BIOTECH & MEDICALS CORPORATION, priority 2021, published 2022).

“And” between values parts separate entries of the source, which are not always exact repeats. Equal values may be shown once. Read-outs that look alike come from different tables or passages of the source.

One data set relates to CT26 tumor. The settings on record: for ORR (%): 3 days after end of treatment; for Relapse (recurrence): tumor growth at least 5 fold in mice with CR or PR; for CR / PD / PR: number of mice. As to the method:
Anti-Colorectal Cancer Activity in Animal Models. Animal study was approved and overseen by The Taipei Medical University Institutional Animal Care and Use Committee (TMU IACUC, NO: LAC-2020-0103, LAC-2019-0644). Six- to eight-week-old male Balb/c mice (National Laboratory Animal Center, Taiwan) were used for all animal experiments. CT26 cell line was purchased from ATCC. CT26 tumor cell lines were grown in RPMI-1640 supplemented with 10% (vol/vol) FBS at 37° C., 5% CO2. Tumors were established by s.c. injection of 1×10^6 CT26 cells with Matrigel (354248, Corning®) into the left flank of mice, and growth determined by measuring two perpendicular diameters. Tumors were allowed to grow for 8-12 days (tumor size about 110-250 mm^3) before randomization and treatment. Animals were euthanized when tumors reached more than 3000 mm^3 in volume. An anti-IgG antibody (BE0089, Lot #716719J3, Bio X Cell), anti-PD-1 antibody (BE0146, Lot #717918D1, Lot #735019J3, Lot #780120J3, Lot #73501901, Bio X Cell), anti-PD-L1 antibody (BE0101, Lot #720619F1, Bio X Cell) and anti-CTLA-4 antibody (BE0164, Lot #702418A2B, Bio X Cell) were administered i.p. at 2.5 mg/kg twice a week for three weeks. All antibodies were diluted to appropriate concentrations in 100 μL of sterile PBS (pH 7.4, Invitrogen Life Technologies). Axitinib (HY-10065, 30 mg/kg, po daily, MedChemExpress USA), Lenvatinib (HY-10981, 10 mg/kg, po daily, MedChemExpress USA), Olaparib (HY-10162, 50 mg/kg, po daily, MedChemExpress USA), Ibrutinib (HY-10997, 6 mg/kg, po daily, MedChemExpress USA), Cabozantinib (HY-13016, 30 mg/kg, po daily, MedChemExpress USA), Regorafenib (HY-1031, 30 mg/kg, po daily, MedChemExpress USA), RMC-4550 (HY-116009, 30 mg/kg, po daily, MedChemExpress USA), Sitravatinib (HY-16961, 20 mg/kg, po daily, MedChemExpress USA), Entinostat (HY-12163, 20 mg/kg, po q2d, MedChemExpress USA), Vorinostat (HY-10221, 150 mg/kg, po daily, MedChemExpress USA), Chidamide-k30 or Chidamide-HCl salt (50 mg/kg, po daily, produced from GNTbm, Taipei, Taiwan), Celecoxib (50 mg/kg, po daily, capsule/Celebrex®, Pfizer Pharmaceuticals LLC) were given for 16 days. Axitinib, Lenvatinib, Olaparib, Ibrutinib, Cabozantinib, Regorafenib, Entinostat, Vorinostat, RMC-4550, Sitravatinib and Celecoxib were dissolved in DMSO and diluted in PBS before administration. Chidamide-k30 and Chidamide-HCl salt were dissolved in water. Animals were euthanized when tumors reached more than 3000 mm^3 in volume. The anti-cancer activity was measured from the start of the treatment until the tumor volume reached 3,000 mm^3. Tumor volume was calculated as length×width^2×0.5. In this study, we defined Complete Response (CR, <0.5 time tumor growth in the tumor bearing mice at three days after the end of treatment); Partial Response (PR, tumor size ≥0.5 time tumor growth, but <1 times tumor growth in the tumor bearing mice at three days after the end of treatment); Stable Disease (SD, tumor size ≥1 time tumor growth, but <5 times tumor growth in the tumor bearing mice at three days after the end of treatment); Progressive Disease (PD, tumor size ≥5 times tumor growth in tumor bearing mice at three days after the end of treatment) for the evaluation of treatment efficacy. The recurrence was defined as when having tumor growth at least 5 fold in mice with CR or PR response after first tumor assessment.
Survival Rate in Animal Models. After tumor assessment the tumor volume of the mice was measured once every three or four days (twice/week). The tumor-bearing mice were regarded as dead when the tumor volume reached 3,000 mm^3. All treatment groups were recorded and analyzed.

A further data set deals with CT26 cells. Put plainly: Tumor rechallenge with CT26 cells in mice with PR/CR response (immunity). Format: in vivo, Balb/c mice. The settings on record: for Immunity (rechallenge): mice resistant to CT26 re-challenge. As for the experimental part:
Tumor Rechallenges in Animal Models. All mice with PR/CR response after treatment were rechallenged with CT26 cells on the contralateral side (please see FIG. 6(F)). The rechallenge with CT26 was performed on day 34±2, which was 7 days […] after first tumor assessment (day 27±2), with injection of 5×10^6 CT26 cells per mouse. After rechallenge with CT26 cells, tumors were allowed to grow for another 7 days (day 41±2) to determine the baseline as 1 fold. After further 10 days (day 51±2), the tumor growth was evaluated for the rechallenge. If two of the following criteria are met, the response will be considered as rechallenge-induced recurrence/relapse: first, the tumor size over 2 folds when compared to that of baseline on day 41±2; second, the tumor volume on day 51±2 was over 300 mm^3. Relapse happens when immunity is not sufficiently activated. If the tumor growth is inhibited, it means the immunity is activated.
We were interested in researching more powerful regimens to regulate the TME for boosting the immune response rate. First, we were to evaluate the Lenvatinib and Lenvatinib combined with anti-PD-1 Ab in CT26-bearing mice model. […] CT26 tumor-bearing mice were euthanized when tumor volume reached 3000 mm^3 after tumor implantation. […] Next, we were interested to evaluate immunity stimulated by different treatments in a rechallenge experiment as outlined in FIG. 6(F). The mice with CR or PR went into a wash-out stage of 7 days (until day 34±2) without any further treatment. Then rechallenge was performed with the same kind of cancer cells (CT26; 5×10^6) inoculated on the opposite flank for about another 7 days (day 41±2) and then the tumor volume would be determined as baseline (1 fold). The rechallenge tumor was allowed to grow for 10 days, and then assessed to evaluate the tumor growth (day 51±2). The immunity was defined as negative, when it met two conditions: the tumor volume was over 300 mm^3, or the tumor size was over 2 fold when compared to baseline. […] If the immune memory was not induced or not fully activated, resulting in the growth of tumors inoculated during the rechallenge (tumor recurrence), then the immunity would be defined as negative. […] The rechallenge experiment was used to re-confirm whether the regimens have stimulated the immune system's ability to activate immune memory directly or indirectly.

Where [1] appears, read: FIG. 9, initial tumor volume 251 mm^3.

As for `CNC(=O)c1ccccc1Sc1ccc2c(/C=C/c3ccccn3)n[nH]c2c1` [Axitinib], in the data set on CT26 tumor (FIG. 9), the “Survival Rate (%)” value turned out to be 38%, the “Relapse (recurrence)” value is 0%, the CR was determined as 3 and the PD was determined as 4. This compound also returned a PR in the data set on CT26 tumor (FIG. 9) of 0. Moreover, the “ORR (%)” value with CT26 tumor (setting [1]) is 37.5% and 38%.
As to `COc1cc2nccc(Oc3ccc(NC(=O)C4(C(=O)Nc5ccc(F)cc5)CC4)cc3)c2cc1OC` [Cabozantinib], the “Immunity (rechallenge)” value with CT26 cells (FIG. 9) was 100%. In the data set with CT26 tumor (FIG. 9), the “Survival Rate (%)” value was found to be 14%, the “Relapse (recurrence)” value worked out at 67%, the CR is 3 and the PD was found to be 2. For the same compound, in the data set with CT26 tumor (FIG. 9), the PR is given as 0. Also, the “ORR (%)” value in the data set on CT26 tumor (setting [1]) was 43%.
Regarding `COc1cc2nccc(Oc3ccc(NC(=O)NC4CC4)c(Cl)c3)c2cc1C(N)=O` [Lenvatinib], the “tumor recurrence after the rechallenge” value in the data set with CT26 cells (FIG. 6(G), mice that achieved CR/PR) is on record as 33%. Besides, in the data set on CT26 cells (FIG. 6, overall immune memory), the “Immunity (rechallenge)” value amounted to 67%. In the data set on CT26 tumor (FIG. 6), the “Survival Rate (%)” value came out at 10%, the “Relapse (recurrence)” value was 67%, the CR came to 1 and the PD turned out to be 2. The PR in the data set with CT26 tumor (FIG. 6) stood at 2. The “ORR (%)” value in the data set with CT26 tumor (FIG. 6, initial tumor volume 190 mm^3) was 30%. In the data set on CT26 tumor (FIG. 9), the “Survival Rate (%)” value was 0%, the “Relapse (recurrence)” value was found to be 100%, the CR is 0 and the PD was 2. In the data set on CT26 tumor (FIG. 9), this compound displayed a PR of 1. The “ORR (%)” value in the data set on CT26 tumor (setting [1]) was 12.5% and 13%. Besides, in the data set with CT26 tumor (mouse, in vivo), the body weight entry is given as “mildly reduced”.
For the compound `CNC(=O)c1cc(Oc2ccc(NC(=O)Nc3ccc(Cl)c(C(F)(F)F)c3)c(F)c2)ccn1` [Regorafenib], the “Immunity (rechallenge)” value with CT26 cells (FIG. 9) amounted to 50%. For the same compound, in the data set with CT26 tumor (FIG. 9), the “Survival Rate (%)” value amounted to 13%, the “Relapse (recurrence)” value is 50%, the CR was 2 and the PD was determined as 2. In the data set with CT26 tumor (FIG. 9), the PR is given as 0. Further, in the data set on CT26 tumor (setting [1]), the “ORR (%)” value was determined as 25%.
